Laboratory results taken from patent publication US20250195551A1 (L4 BIO LLC, priority 2023, published 2025).

Assays:
[1] = Solubility determination of ivermectin in excipients
Experimental: The solubility assessments were performed by continually adding a known amount of the API into each individual excipient and letting the excipient reach solubility equilibrium via API saturation (visible solid observed). The experiments were conducted at ambient conditions (25° C.) and were left to mix on a stir plate at 500 RPM for at least 72 hours.

glycine receptor (GlyR) = conditions: interaction with glycine receptor (GlyR) in humans; cited from earlier work
[2] = target: T1, purinergic P2X4 receptors (Homo sapiens, UniProt Q99571); conditions: interaction with purinergic P2X4 receptors in humans; cited from earlier work
T1 sequence (Q99571 1-388): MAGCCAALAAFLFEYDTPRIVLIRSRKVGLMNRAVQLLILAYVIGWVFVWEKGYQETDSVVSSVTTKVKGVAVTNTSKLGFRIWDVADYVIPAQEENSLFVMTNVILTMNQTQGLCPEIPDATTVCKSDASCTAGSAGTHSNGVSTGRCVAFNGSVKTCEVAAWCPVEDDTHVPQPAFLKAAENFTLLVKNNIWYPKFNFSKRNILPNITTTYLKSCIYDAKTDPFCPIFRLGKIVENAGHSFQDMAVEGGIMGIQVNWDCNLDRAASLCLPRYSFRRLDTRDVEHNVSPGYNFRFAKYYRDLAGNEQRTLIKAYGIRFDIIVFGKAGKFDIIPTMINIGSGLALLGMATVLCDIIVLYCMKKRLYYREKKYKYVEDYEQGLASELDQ

[3] = Excipient compatibility study; type: physicochemical; conditions: for Chromatographic purity by HPLC (Assay) / Total Impurities % (excluding API impurities %): 40° C./75% RH
Experimental: An excipient compatibility study was initiated with selected excipients ranging from oils to surfactants based on equilibrium solubility results (Table 2). […] After solutions were prepared using a hand-held homogenizer (Model IKAT10 Ultra-Turrax), each excipient sample was aliquoted in amber vials, approximately 10% water was added in each excipient aliquot, and bench scale gel stripe OET-004037 was also made and added in a separate set of aliquot samples at approximately 1:1 w/w.
All samples were stored at 40° C./75% relative humidity (RH) condition (Model: Lunaire environmental chamber) and tested by developmental reversed phase HPLC method for Assay/Related Substances at T=0, 2 weeks, and 1 month.

[4] = in Fractionated coconut oil, Sample: 10% water, T = 2 weeks
[5] = in Fractionated coconut oil, Sample: Control, T = 0
[6] = in Fractionated coconut oil, Sample: Control, T = 2 weeks
[7] = in Fractionated coconut oil, Sample: Gel Stripe (1:1 w/w), T = 2 weeks
[8] = in Labrasol ALF, Sample: 10% water, T = 1 months
[9] = in Labrasol ALF, Sample: 10% water, T = 2 weeks
[10] = in Labrasol ALF, Sample: Control, T = 0
[11] = in Labrasol ALF, Sample: Control, T = 1 months
[12] = in Labrasol ALF, Sample: Control, T = 2 weeks
[13] = in Labrasol ALF, Sample: Gel Stripe (1:1 w/w), T = 1 months
[14] = in Labrasol ALF, Sample: Gel Stripe (1:1 w/w), T = 2 weeks
[15] = in Maisine CC, Sample: 10% water, T = 1 months
[16] = in Maisine CC, Sample: 10% water, T = 2 weeks
[17] = in Maisine CC, Sample: Control, T = 0
[18] = in Maisine CC, Sample: Control, T = 1 months
[19] = in Maisine CC, Sample: Control, T = 2 weeks
[20] = in Maisine CC, Sample: Gel Stripe (1:1 w/w), T = 1 months
[21] = in Maisine CC, Sample: Gel Stripe (1:1 w/w), T = 2 weeks
[22] = in Masester E8120, Sample: 10% water, T = 1 months

ivermectin showed a Solubility ([1]; in Capryol 90, 25° C.) of 150.92 mg/g, a Solubility ([1]; in Fractionated Coconut oil, 25° C.) of 16.55 mg/g and a Solubility ([1]; in Glycerin, 25° C.) of under 0.1 mg/g. For the same substance, the Solubility ([1]; in Kolliphor EL, 25° C.) was 95.85 mg/g, the Solubility ([1]; in Labrafil M 2125 CS, 25° C.) was 35.32 mg/g and the Solubility ([1]; in Labrasol ALF, 25° C.) was 126.36 mg/g. It also gave a Solubility ([1]; in LauroglycolTM FCC, 25° C.) of 71.96 mg/g, a Solubility ([1]; in Maisine CC, 25° C.) of 60.17 mg/g and a Solubility ([1]; in Masester E8120, 25° C.) of 164.06 mg/g. For the same substance, the Solubility ([1]; in Medium Chain Triglyceride, 25° C.) was 16.49 mg/g, the Solubility ([1]; in Oleic acid, 25° C.) was 48.58 mg/g and the Solubility ([1]; in Olive oil, 25° C.) was 4.71 mg/g. It also gave a Solubility ([1]; in PEG 400, 25° C.) of 112.92 mg/g, a Solubility ([1]; in Propylene glycol, 25° C.) of 25.61 mg/g and a Solubility ([1]; in Soybean oil, 25° C.) of 6.72 mg/g. The Solubility ([1]; in Span 20, 25° C.) was 97.66 mg/g, the Solubility ([1]; in Span 80, 25° C.) was 54.04 mg/g and the Solubility ([1]; in Triacetin, 25° C.) was 58.75 mg/g. The Solubility ([1]; in Tween 80, 25° C.) was 88.26 mg/g, the Solubility ([1]; in Vitamin E TPGS, table title 25° C., text: conducted at 40° C.) was 82.98 mg/g and the EC50 (glycine receptor (GlyR)) was about 1200 nM. For the same substance, the EC50 [2] was about 250 nM, the “Chemical compatibility with the API” value ([3]; PEG 400 as co-solvent) was “poor chemical compatibility” and the “Chemical compatibility with the API” value ([3]; Vitamin E TPGS compared with Tween 80 and Labrasol ALF (surfactants)) was “best chemical compatibility”. For the same substance, the “Chromatographic purity by HPLC (Assay)” value [3, 4] was 97.83 % area, the “Total Impurities % (excluding API impurities %)” value (“Total Impurities %” below) [3, 4] was “<LOQ” and the “Chromatographic purity by HPLC (Assay)” value [3, 5] was 95.61 % area. The “Total Impurities %” value [3, 5] was “<LOQ”, the “Chromatographic purity by HPLC (Assay)” value [3, 6] was 97.94 % area and the “Total Impurities %” value [3, 6] was “<LOQ”. The “Chromatographic purity by HPLC (Assay)” value [3, 7] was 94.42 % area, the “Total Impurities %” value [3, 7] was 3.28 % adjusted area and the “Chromatographic purity by HPLC (Assay)” value [3, 8] was 89.91 % area. For the same substance, the “Total Impurities %” value [3, 8] was 8.76 % adjusted area, the “Chromatographic purity by HPLC (Assay)” value [3, 9] was 93.91 % area and the “Total Impurities %” value [3, 9] was 3.46 % adjusted area. The “Chromatographic purity by HPLC (Assay)” value [3, 10] was 97.74 % area, the “Total Impurities %” value [3, 10] was “<LOQ” and the “Chromatographic purity by HPLC (Assay)” value [3, 11] was 81.35 % area. The “Total Impurities %” value [3, 11] was 20.49 % adjusted area, the “Chromatographic purity by HPLC (Assay)” value [3, 12] was 89.16 % area and the “Total Impurities %” value [3, 12] was 8.67 % adjusted area. The “Chromatographic purity by HPLC (Assay)” value [3, 13] was 96.49 % area, the “Total Impurities %” value [3, 13] was 1.06 % adjusted area and the “Chromatographic purity by HPLC (Assay)” value [3, 14] was 97.11 % area. For the same substance, the “Total Impurities %” value [3, 14] was 0.30 % adjusted area, the “Chromatographic purity by HPLC (Assay)” value [3, 15] was 96.83 % area and the “Total Impurities %” value [3, 15] was 0.69 % adjusted area. For the same substance, the “Chromatographic purity by HPLC (Assay)” value [3, 16] was 95.90 % area, the “Total Impurities %” value [3, 16] was 0.45 % adjusted area and the “Chromatographic purity by HPLC (Assay)” value [3, 17] was 97.13 % area. For the same substance, the “Total Impurities %” value [3, 17] was 0.58 % adjusted area, the “Chromatographic purity by HPLC (Assay)” value [3, 18] was 96.82 % area and the “Total Impurities %” value [3, 18] was 0.71 % adjusted area. For the same substance, the “Chromatographic purity by HPLC (Assay)” value [3, 19] was 96.00 % area, the “Total Impurities %” value [3, 19] was 0.35 % adjusted area and the “Chromatographic purity by HPLC (Assay)” value [3, 20] was 96.94 % area. For the same substance, the “Total Impurities %” value [3, 20] was 0.58 % adjusted area, the “Chromatographic purity by HPLC (Assay)” value [3, 21] was 96.15 % area and the “Total Impurities %” value [3, 21] was 0.33 % adjusted area. For the same substance, the “Chromatographic purity by HPLC (Assay)” value [3, 22] was 91.68 % area, the “Total Impurities %” value [3, 22] was 6.60 % adjusted area and the “Chromatographic purity by HPLC (Assay)” value ([3]; in Masester E8120, Sample: 10% water, T = 2 weeks) was 95.11 % area.
